# Assay results from patent publication US20140121193A1, “METHODS FOR TREATING FIBROMYALGIA” (priority 2012, published 2014).
# Structures can show the parent of a compound that is named as a salt.
# Experiments:
# Type in all cases: in vivo, human
# [1] = tested on: patients with FMS; test: Mental Clutter Scale (MCS), Cognition and Mental Clarity subscales, before and after methylphenidate; settings: 10 to 30 mg per day, median 30 days
# Experimental: Three studies involving a sample of over 800 subjects were carried out to determine the structure and stability of a new scale, the Mental Clutter Scale (MCS) (Leavitt & Katz, 2011, “Development of the Mental Clutter Scale,” Psychol. Rep. 109(2): 445-52). An initial pool of 13 items was formulated from self-statements of patients presenting with a history of memory complaints and a review of the literature. Seven items relating to problems with cognitive skills were rated on a 10-point Likert scale from 1=no problem, to 10=severe problem. Six items relating to the frequency of diminished mental clarity were rated on a 10-point Likert scale from 1=not at all, to 10=all the time.
# (§1) A word naming speed measure (Stroop Color and Word Test) and a measure of cognitive functioning (Mental Clutter Scale, MCS) were administered to 15 patients with FMS, before receiving methylphenidate and post-treatment with methylphenidate. The FMS patients were female, met American College of Rheumatology criteria for FMS, and had memory problems. Methylphenidate dosage was clinically determined and ranged from 10 to 30 mg per day. The median time of methylphenidate usage at re-testing was 30 days. Naming speed was determined by the number of words named in a 45 second time period.
# (§2) The mean age of the FMS sample was 46.3±11.6 years with 14.1±2.1 years of education. […] Pre-methylphenidate, the patients read 77.4 words in 45 seconds (581.4 msec/word). Post-methylphenidate, the patients read 93 words in 45 seconds (483.9 msec/word). This represents a 97.5 millisecond benefit from methylphenidate. The normative sample reads 108 words in 45 seconds or 417 msec/word.
# [2] = tested on: patients with FMS; test: Word naming speed (Stroop Color and Word Test) before and after methylphenidate; settings: 10 to 30 mg per day, median 30 days
# Description: Abnormalities in naming speed are an unappreciated feature of cognitive dysfunction in fibromyalgia (FMS). Approximately 50% of FMS patients with memory problems name words at a rate that is 203 milliseconds slower than normal. The connection between naming speed and memory loss in FMS is unclear. Stimulant medications like methylphenidate have been known to influence naming speed and could provide clues to the relationship between cognitive functioning and naming speed. The purpose of this experiment was to determine if faster naming speed is connected to positive change in cognitive functioning in patients with fibromyalgia.
# as §1, §2
# [3] = tested on: patients with FMS; test: Interference from pain on energy, mood and concentration, 10 point visual analogue scale
# Experimental: (§3) Fibromyalgia patients were treated with methylphenidate and the effects on concentration, energy, and feelings of well-being were measured. […] Pain intensity was also recorded on a 10 point visual analogue scale, with the endpoint of 1 indicating no pain, and the endpoint of 10 indicating severe pain. The four measures were administered to 48 patients with FMS, before receiving methylphenidate and post methylphenidate treatment. The FMS patients were female and met the new ACR criteria for FMS. Methylphenidate dosage was clinically determined and ranged from 10 to 60 mg per day. The median methylphenidate usage at re-testing was 30 days.
# (§4) The mean age of the FMS sample was 48.3±12.3 years. […] The largest change occurred with concentration. However, a significant change in pain intensity with methylphenidate treatment was not observed.
# [4] = tested on: patients with FMS; test: Pain intensity, 10 point visual analogue scale
# Experimental: as §3, §4
smiles,measurement,setting,value
"COC(=O)C(c1ccccc1)C1CCCCN1 (racemic) [methylphenidate, d,l (racemic)-threo-methyl α-phenyl-2-piperidineacetate hydrochloride]","Post-methylphenidate score, Mental Clarity subscale of the Mental Clutter Scale","[1]; 15 FMS patients, pre-methylphenidate 48.1 ± 16.5, lower scores represent improved performance, p < 0.01",29.2 ± 13.6
same,"Post-methylphenidate score, Cognition subscale of the Mental Clutter Scale","[1]; 15 FMS patients, pre-methylphenidate 52.8 ± 15.6, lower scores represent improved performance, p < 0.01",35.1 ± 11.3
same,improvement with methylphenidate on Cognition (MCS),[1]; pre vs post,17 point
same,improvement with methylphenidate on Mental Clarity (MCS),[1]; pre vs post,19 point
same,"words read in 45 seconds, post-methylphenidate","[2]; pre-methylphenidate 77.4, normative sample 108",93 words in 45 seconds
same,"naming time per word, post-methylphenidate","[2]; pre-methylphenidate 581.4, normative sample 417",483.9 msec/word
same,benefit from methylphenidate in naming time per word,[2]; pre minus post,97.5 millisecond
same,"Post-methylphenidate score, pain interference on Mood","[3]; 48 female FMS patients, 10 to 60 mg per day, median 30 days, VAS 1-10, pre-methylphenidate 6.0 ± 2.6, lower scores = improved, p < 0.05",5.3 ± 2.5
same,"Post-methylphenidate score, pain interference on Concentration","[3]; 48 female FMS patients, 10 to 60 mg per day, median 30 days, VAS 1-10, pre-methylphenidate 6.5 ± 2.3, lower scores = improved",5.4 ± 2.4
same,"Post-methylphenidate score, pain interference on Energy","[3]; 48 female FMS patients, 10 to 60 mg per day, median 30 days, VAS 1-10, pre-methylphenidate 6.6 ± 2.4, lower scores = improved",5.9 ± 2.2
same,"change in pain interference on concentration, repeated measures ANOVA","[3]; pre vs post methylphenidate, p<0.001, largest change",significant reduction
same,"change in pain interference on energy, repeated measures ANOVA","[3]; pre vs post methylphenidate, p<0.01",significant reduction
same,"change in pain interference on mood, repeated measures ANOVA","[3]; pre vs post methylphenidate, p<0.05",significant reduction
same,"Post-methylphenidate score, Pain intensity","[4]; 48 female FMS patients, 10 to 60 mg per day, median 30 days, VAS 1-10, pre-methylphenidate 6.7 ± 1.9, lower scores = improved",6.4 ± 2.4
same,significant change in pain intensity with methylphenidate treatment,[4]; pre vs post methylphenidate,not observed
